Assay results from PMC4454739 (Clinical cancer research : an official journal of the …, 2014).
Read-outs that look alike come from different tables or passages of the source.

Tests used:
[1] = assay type: in vivo, human; conditions: for change of exposure (AUC) with dose: temsirolimus 8, 10 and 15 mg/m^2; for AUC(0-inf) / AUC(0-t) / Cmax / Tmax / Vd / half-life / clearance: human, intravenous; for AUC(0-inf) / AUC(0-t) / Cmax / Tmax / Vd / half-life: plasma; for clearance: whole blood
[2] = Phase I toxicity, DLT and MTD determination; assay type: in vivo, human; conditions: for recommended pediatric phase II dose: IV once every 7 days
[3] = cited from earlier work
[4] = adults, metastatic prostate cancer; with cixutumumab 6 mg/kg IV; cited from earlier work
[5] = in vivo, 6 mg/kg; cited from earlier work
[6] = in vivo; cited from earlier work
Cixutumumab = conditions: for AUC0–7d / CL / CL (weight-adjusted) / Cmax / Vdss / Vdss (weight-adjusted): median
[7] = all patients, combination with temsirolimus
[8] = cycle 1, IMC-A12 6 mg/kg + temsirolimus 8 mg/m^2 (n=8)
[9] = cycle 1, IMC-A12 6 mg/kg + temsirolimus 10 mg/m^2 (n = 3)
[10] = cycle 1, IMC-A12 6 mg/kg + temsirolimus 15 mg/m^2 (n = 4)

**Q.** With `CO[C@H]1C[C@@H]2CC[C@@H](C)[C@@](O)(O2)C(=O)C(=O)N2CCCC[C@H]2C(=O)O[C@H]([C@H](C)C[C@@H]2CC[C@@H](O)[C@H](OC)C2)CC(=O)[C@H](C)/C=C(\C)[C@@H](O)[C@@H](OC)C(=O)[C@H](C)C[C@H](C)/C=C/C=C/C=C/1C` [Sirolimus] as the molecule, how does the “change of exposure (AUC) with dose” value [1] read?
**A.** The value was “did not appreciably increase with dose”.

**Q.** And the “change of exposure (AUC) with dose” value ([1]; listed as sirolimus)?
**A.** Its value is “did not increase significantly with dose”.

**Q.** For `CO[C@H]1C[C@@H]2CC[C@@H](C)[C@@](O)(O2)C(=O)C(=O)N2CCCC[C@H]2C(=O)O[C@H]([C@H](C)C[C@@H]2CC[C@@H](OC(=O)C(C)(CO)CO)[C@H](OC)C2)CC(=O)[C@H](C)/C=C(\C)[C@@H](O)[C@@H](OC)C(=O)[C@H](C)C[C@H](C)/C=C/C=C/C=C/1C` [Temsirolimus], which AUC(0-inf) ([1]; 8 mg/m2) is on record?
**A.** Its AUC(0-inf) is 2950 ng·h/mL.

**Q.** What about the AUC(0-t) ([1]; 8 mg/m2) of the same molecule?
**A.** Its AUC(0-t) is 2020 ng·h/mL.

**Q.** What about the Cmax ([1]; 8 mg/m2) of the same molecule?
**A.** Its Cmax is 509 ng/mL.

**Q.** And the Tmax ([1]; 8 mg/m2)?
**A.** The Tmax was 0.8 h.

**Q.** What about the Vd ([1]; 8 mg/m2) of the same molecule?
**A.** The Vd was 46.3 L.

**Q.** What about the half-life ([1]; 8 mg/m2) of the same molecule?
**A.** Its half-life is 10.3 h.

**Q.** And the AUC(0-inf) ([1]; 10 mg/m2)?
**A.** The AUC(0-inf) was 3650 ng·h/mL.

**Q.** What about the AUC(0-t) ([1]; 10 mg/m2) of the same molecule?
**A.** The AUC(0-t) was 2650 ng·h/mL.

**Q.** What about the Cmax ([1]; 10 mg/m2) of the same molecule?
**A.** Its Cmax is 606 ng/mL.

**Q.** And the Tmax ([1]; 10 mg/m2)?
**A.** Its Tmax is 0.7 h.

**Q.** And the Vd ([1]; 10 mg/m2)?
**A.** Its Vd is 50.4 L.

**Q.** What about the half-life ([1]; 10 mg/m2) of the same molecule?
**A.** The half-life was 10.5 h.

**Q.** What about the AUC(0-inf) ([1]; 15 mg/m2) of the same molecule?
**A.** Its AUC(0-inf) is 3270 ng·h/mL.

**Q.** What about the AUC(0-t) ([1]; 15 mg/m2) of the same molecule?
**A.** The AUC(0-t) was 2780 ng·h/mL.

**Q.** And the Cmax ([1]; 15 mg/m2)?
**A.** The Cmax was 660 ng/mL.

**Q.** What about the Tmax ([1]; 15 mg/m2) of the same molecule?
**A.** Its Tmax is 0.6 h.

**Q.** What about the Vd ([1]; 15 mg/m2) of the same molecule?
**A.** The Vd was 74.9 L.

**Q.** What about the half-life ([1]; 15 mg/m2) of the same molecule?
**A.** Its half-life is 10.3 h.

**Q.** What about the clearance ([1]; 8 mg/m2) of the same molecule?
**A.** The clearance was 38.3 mL/min.

**Q.** And the clearance ([1]; 10 mg/m2)?
**A.** Its clearance is 91.7 mL/min.

**Q.** What about the clearance ([1]; 15 mg/m2) of the same molecule?
**A.** The clearance was 112 mL/min.

**Q.** And the “change of exposure (AUC) with dose” value [1]?
**A.** The value was “did not increase significantly with dose”.

**Q.** And the MTD ([2]; temsirolimus combined with cixutumumab 6 mg/kg, children)?
**A.** Its MTD is 8 mg/m^2.

**Q.** And the “recommended pediatric phase II dose” value ([2]; temsirolimus in combination with cixutumumab)?
**A.** Its value is 8 mg/m^2.

**Q.** What about the “clearance from whole blood, mean” value ([3]; after a 25-mg dose) of the same molecule?
**A.** The value was 20 L/h.

**Q.** What about the “steady-state volume of distribution (Vss)” value ([3]; after a 25-mg dose) of the same molecule?
**A.** Its value is 230 L.

**Q.** What about the “clearance from whole blood, mean” value ([3]; after a 250-mg dose) of the same molecule?
**A.** Its value is 100 L/h.

**Q.** What about the “steady-state volume of distribution (Vss)” value ([3]; after a 250-mg dose) of the same molecule?
**A.** Its value is 900 L.

**Q.** And the “MTD of temsirolimus in the combination, flat dose” value [4]?
**A.** Its value is 20 mg.

**Q.** What about the “MTD of temsirolimus in the combination, per body surface” value [4] of the same molecule?
**A.** The value was 11 mg/m^2.

**Q.** Which “recommended pediatric phase II dose” value ([2]; cixutumumab in combination with temsirolimus) does the source give for “Cixutumumab: fully recombinant IgG1 monoclonal antibody that specifically targets the human IGF-IR1” here?
**A.** The value was 6 mg/kg.

**Q.** And the half-life [5]?
**A.** The half-life was 209 h.

**Q.** And the steady-state trough concentration [5]?
**A.** The steady-state trough concentration was 145 mg/mL.

**Q.** What about the “recommended phase II dose, single agent” value [6] of the same molecule?
**A.** Its value is 9 mg/kg.

**Q.** And the median half-life (Cixutumumab; [7])?
**A.** The median half-life was 122 h.

**Q.** What about the median weight-adjusted clearance (Cixutumumab; [7]) of the same molecule?
**A.** The median weight-adjusted clearance was 4.08 mL/day/kg.

**Q.** And the half-life (Cixutumumab; at 6 mg/kg, children)?
**A.** Its half-life is 122 h.

**Q.** What about the steady-state trough concentration (Cixutumumab; at 6 mg/kg, children) of the same molecule?
**A.** The steady-state trough concentration was 197 mg/mL.

**Q.** What about the “median serum trough concentration (Ctrough)” value (Cixutumumab; day 28 following a 6 mg/kg dose) of the same molecule?
**A.** Its value is “approximately 200 μg/ml”.

**Q.** And the “AUC0–7d” value (Cixutumumab; [8])?
**A.** The value was 20.6 ng·h/mL.

**Q.** And the CL (Cixutumumab; [8])?
**A.** The CL was 8.3 mL/h.

**Q.** What about the “CL (weight-adjusted)” value (Cixutumumab; [8]) of the same molecule?
**A.** The value was 4.56 mL/day/kg.

**Q.** What about the Cmax (Cixutumumab; [8]) of the same molecule?
**A.** Its Cmax is 281000 ng/mL.

**Q.** And the Vdss (Cixutumumab; [8])?
**A.** The Vdss was 1050 mL.

**Q.** What about the “Vdss (weight-adjusted)” value (Cixutumumab; [8]) of the same molecule?
**A.** Its value is 0.0258 L/kg.

**Q.** What about the “AUC0–7d” value (Cixutumumab; [9]) of the same molecule?
**A.** Its value is 25.6 ng·h/mL.

**Q.** And the CL (Cixutumumab; [9])?
**A.** The CL was 9.9 mL/h.

**Q.** What about the “CL (weight-adjusted)” value (Cixutumumab; [9]) of the same molecule?
**A.** The value was 4.08 mL/day/kg.

**Q.** What about the Cmax (Cixutumumab; [9]) of the same molecule?
**A.** The Cmax was 277000 ng/mL.

**Q.** What about the Vdss (Cixutumumab; [9]) of the same molecule?
**A.** Its Vdss is 1750 mL.

**Q.** What about the “Vdss (weight-adjusted)” value (Cixutumumab; [9]) of the same molecule?
**A.** Its value is 0.0227 L/kg.

**Q.** And the “AUC0–7d” value (Cixutumumab; [10])?
**A.** Its value is 26.4 ng·h/mL.

**Q.** What about the CL (Cixutumumab; [10]) of the same molecule?
**A.** The CL was 7.0 mL/h.

**Q.** And the “CL (weight-adjusted)” value (Cixutumumab; [10])?
**A.** Its value is 3.12 mL/day/kg.

**Q.** And the Cmax (Cixutumumab; [10])?
**A.** Its Cmax is 230000 ng/mL.

**Q.** And the Vdss (Cixutumumab; [10])?
**A.** The Vdss was 1860 mL.

**Q.** And the “Vdss (weight-adjusted)” value (Cixutumumab; [10])?
**A.** Its value is 0.0311 L/kg.

**Q.** And the “change in cixutumumab clearance as the temsirolimus dose was increased” value (Cixutumumab; temsirolimus 8 to 15 mg/m^2)?
**A.** The value was “no changes”.
